Reference: patent US10138230B2, “Autotaxin inhibitors” (CANCER RESEARCH TECHNOLOGY LIMITED, priority 2015, dated 2018)
Counter-ions that a name gives are not always drawn.

Target: human recombinant ATX (Homo sapiens (Human), UniProt Q13822)
Assay: Autotaxin (ATX) activity Quanta Red assay
Type: biochemical
Settings: 15 μM Rac-1-Palmitoyl-glycero-3-phosphocholine, 2 hours room temperature, determined in duplicate
Experimental: The ATX enzyme assay (Quanta Red assay) described in accompanying Example section may be used to measure the pharmacological effects of the compounds of the present invention.
Autotaxin (ATX) Activity Quanta Red Assay
Measuring ATX activity using an enzyme coupled Quanta Red assay (Thermo Scientific—Pierce Protein Research Products, Product #15159) was determined as follows. 8 μL human recombinant ATX (final concentration 0.8 μg/mL) in 1× Assay buffer containing 50 mM Tris-HCl (pH 8.0), 5 mM CaCl2 was added to an opaque black flat-bottom 384-well plate (Corning, #3575) containing 2 μL test compound in 40% DMSO (4% final DMSO concentration). 10 μL of Quanta Red, Horseradish peroxidase (HRP), Choline Oxidase (CO), Rac-1-Palmitoyl-glycero-3-phosphocholine solution (final concentration 1:250 for Quanta Red, 0.5units/ml HRP, 0.5units/ml CO, 15 μM Rac-1-Palmitoyl-glycero-3-phosphocholine) in 1× assay buffer (as described previously) was added to each well to start the reaction and the plate was incubated at room temperature for 2 hours. The reaction was stopped after 2 hours with a 20 μL addition of Quanta Red Stop solution (1:20 dilution in distilled water). The above-described mixture with DMSO alone was used as a positive control whereas that with DMSO alone without ATX was taken as a negative control.
For each test compound, ten concentrations were measured covering a range of 6.1 nM to 120 μM to determine IC50 values. The top concentration was decreased to 1.2 μM when a test compound's IC50 value was evaluated in low nanomolar range. Fluorescence was determined in a BMG Labtech Pherastar plus plate reader ([…]). Data were analysed using Excel fit software. IC50 values were determined in duplicate.

IC50	Structure (SMILES)
3 nM	O=C(Nc1nnc(CCc2ccc(F)cc2)s1)[C@H]1CC(=O)N(c2ccc(CN3CCOCC3)cc2)C1 (stereo in doubt) [Compound F215, 1-(4-Morpholin-4-ylmethyl-phenyl)-5-oxo-pyrrolidine-3-carboxylic acid {5-[2-(4-fluoro-phenyl)-ethyl]-[1,3,4]thiadiazol-2-yl}-amide; hydrochloride]
2 nM	O=C(Nc1nnc(CCC2CCCCC2)s1)C1CC(=O)N(c2ccc(CN3CCOCC3)cc2)C1 (stereo not drawn) [Compound F147, N-[5-(2-cyclohexylethyl)-1,3,4-thiadiazol-2-yl]-1-[4-(morpholinomethyl)phenyl]-5-oxo-pyrrolidine-3-carboxamide]
7 nM	O=C(Nc1ccc(CCc2ccc(F)cc2)nn1)C1CC(=O)N(c2ccc(CN3CCOCC3)cc2)C1 (stereo not drawn) [Compound F149, 1-(4-morpholin-4-ylmethyl-phenyl)-5-oxo-pyrrolidine-3-carboxylic acid {6-[2-(4-fluoro-phenyl)-ethyl]-pyridazin-3-yl}-amide]
3 nM	O=C(Nc1nnc(CCc2ccc(F)cc2)s1)[C@H]1CC(=O)N(c2ccc(CN3CCOCC3)cc2)C1 [Compound F108, (3S)-N-[5-[2-(4-fluorophenyl)ethyl]-1,3,4-thiadiazol-2-yl]-1-[4-(morpholinomethyl)phenyl]-5-oxo-pyrrolidine-3-carboxamide]
70 nM	O=C(Nc1nnc(CCC2CCCCO2)s1)[C@H]1CC(=O)N(c2ccc(CN3CCCCC3)cc2)C1 (stereo partly drawn) [Compound F164, (3S)-5-oxo-1-[4-(1-piperidylmethyl)phenyl]-N-[5-(2-tetrahydropyran-2-ylethyl)-1,3,4-thiadiazol-2-yl]pyrrolidine-3-carboxamide]
49 nM	O=C(Nc1nnc(CCc2ccc(Cl)cc2)s1)[C@@H]1CC(=O)N(c2ccc(CN3CCCCC3)cc2)C1 [Compound F163, (3R)-N-[5-[2-(4-chlorophenyl)ethyl]-1,3,4-thiadiazol-2-yl]-5-oxo-1-[4-(1-piperidylmethyl)phenyl] pyrrolidine-3-carboxamide]
1 nM	O=C(Nc1nnc(CCc2ccc(Cl)cc2)s1)[C@H]1CC(=O)N(c2ccc(CN3CCCCC3)cc2)C1 [Compound F93, (3S)-N-[5-[2-(4-chlorophenyl)ethyl]-1,3,4-thiadiazol-2-yl]-5-oxo-1-[4-(1-piperidylmethyl)phenyl] pyrrolidine-3-carboxamide]
1 nM	O=C(Nc1nnc(CCc2ccc(Cl)cc2)s1)[C@H]1CC(=O)N(c2ccc(CN3CCCCCC3)cc2)C1 [Compound F91, (3S)-1-[4-(azepan-1-ylmethyl)phenyl]-N-[5-[2-(4-chlorophenyl)ethyl]-1,3,4-thiadiazol-2-yl]-5-oxo-pyrrolidine-3-carboxamide]
95 nM	O=C(Nc1nnc(CCC2CCCCO2)s1)[C@H]1CC(=O)N(c2ccc(CN3CCOCC3)cc2)C1 (stereo partly drawn) [Compound F165, (3S)-1-[4-(morpholinomethyl)phenyl]-5-oxo-N-[5-(2-tetrahydropyran-2-ylethyl)-1,3,4-thiadiazol-2-yl]pyrrolidine-3-carboxamide]
5 nM	O=C(Nc1nnc(CCC2CCCC2)s1)C1CC(=O)N(c2ccc(CN3CCC(F)(F)CC3)cc2)C1 (stereo not drawn) [Compound F123, N-[5-(2-cyclopentylethyl)-1,3,4-thiadiazol-2-yl]-1-[4-[(4,4-difluoro-1-piperidyl)methyl]phenyl]-5-oxo-pyrrolidine-3-carboxamide]
4 nM	O=C(Nc1nnc(CCc2ccc(Cl)cc2)s1)C1CC(=O)N(c2ccc(CN3CCOCC3)cc2)C1 (stereo not drawn) [Compound F121, N-[5-[2-(4-chlorophenyl)ethyl]-1,3,4-thiadiazol-2-yl]-1-[4-(morpholinomethyl)phenyl]-5-oxo-pyrrolidine-3-carboxamide]
2 nM	CC1CCN(Cc2ccc(N3CC(C(=O)Nc4nnc(CCc5ccc(Cl)cc5)s4)CC3=O)cc2)CC1 (stereo not drawn) [Compound F95, 1-[4-(4-methyl-piperidin-1-ylmethyl)-phenyl]-5-oxo-pyrrolidine-3-carboxylic acid {5-[2-(4-chloro-phenyl)-ethyl]-[1,3,4]thiadiazol-2-yl}-amide]
21 nM	CCC(C)CCc1nnc(NC(=O)C2CC(=O)N(c3ccc(CN4CCCCC4)cc3)C2)s1 (stereo not drawn) [Compound F182, 5-oxo-1-(4-piperidin-1-ylmethyl-phenyl)-pyrrolidine-3-carboxylic acid [5-(3-methyl-pentyl)-[1,3,4]thiadiazol-2-yl]-amide; hydrochloride]

The next lines start with the compound.

Structure (SMILES)	IC50
CCN(C)Cc1ccc(N2CC(C(=O)Nc3nnc(CCc4ccc(Cl)cc4)s3)CC2=O)cc1 (stereo not drawn) [Compound F211, 1-{4-[(Ethyl-methyl-amino)-methyl]-phenyl}-5-oxo-pyrrolidine-3-carboxylic acid {5-[2-(4-chloro-phenyl)-ethyl]-[1,3,4]thiadiazol-2-yl}-amide]	9 nM
C[C@@H]1CN(Cc2ccc(N3CC(C(=O)Nc4nnc(CCc5ccc(Cl)cc5)s4)CC3=O)cc2)C[C@H](C)O1 (stereo partly drawn) [Compound F119, N-[5-[2-(4-chlorophenyl)ethyl]-1,3,4-thiadiazol-2-yl]-1-[4-[[(2S,6R)-2,6-dimethylmorpholin-4-yl]methyl]phenyl]-5-oxo-pyrrolidine-3-carboxamide]	4 nM
O=C1CC(NCc2nnc(CCc3ccc(Cl)cc3)s2)CN1c1ccc(CN2CCOCC2)cc1 (stereo not drawn) [Compound F183, 4-({5-[2-(4-Chloro-phenyl)-ethyl]-[1,3,4]thiadiazol-2-ylmethyl}-amino)-1-(4-morpholin-4-ylmethyl-phenyl)-pyrrolidin-2-one; hydrochloride]	23 nM
CC(C)(C)OC(=O)N1CCN(Cc2ccc(N3CC(C(=O)Nc4nnc(CCc5ccc(Cl)cc5)s4)CC3=O)cc2)CC1 (stereo not drawn) [Compound F157, tert-butyl 4-[[4-[4-[[5-[2-(4-chlorophenyl)ethyl]-1,3,4-thiadiazol-2-yl]carbamoyl]-2-oxo-pyrrolidin-1-yl]phenyl]methyl] piperazine-1-carboxylate]	15 nM
O=C(NC1CC(=O)N(c2ccc(CN3CCCCC3)cc2)C1)c1cc(CCc2ccccc2)no1 (stereo not drawn) [Compound F198, N-[5-oxo-1-[4-(1-piperidylmethyl)phenyl]pyrrolidin-3-yl]-3-(2-phenylethyl)isoxazole-5-carboxamide]	989 nM
O=C(NC1CC(=O)N(c2ccc(CN3CCCCC3)cc2)C1)c1cc(CCc2ccccc2)on1 (stereo not drawn) [Compound F175, N-[5-oxo-1-[4-(1-piperidylmethyl)phenyl]pyrrolidin-3-yl]-5-(2-phenylethyl)isoxazole-3-carboxamide]	47 nM
CN(Cc1ccc(N2C[C@@H](C(=O)Nc3ccc(CCc4ccc(F)cc4)nn3)CC2=O)cc1)C1CCOC1 (stereo partly drawn) [Compound F148, (3S)-N-[6-[2-(4-fluorophenyl)ethyl]pyridazin-3-yl]-1-[4-[[methyl(tetrahydrofuran-3-yl)amino]methyl]phenyl]-5-oxo-pyrrolidine-3-carboxamide]	6 nM
O=C(Nc1cc(CCc2ccccc2)[nH]n1)C1CC(=O)N(c2ccc(CN3CCOCC3)cc2)C1 (stereo not drawn) [Compound F179, 1-[4-(morpholinomethyl)phenyl]-5-oxo-N-[5-(2-phenylethyl)-1H-pyrazol-3-yl]pyrrolidine-3-carboxamide]	38 nM
O=C(NC1CC(=O)N(c2ccc(CN3CCOCC3)cc2)C1)c1nnc(CCc2ccc(Cl)cc2)s1 (stereo not drawn) [Compound F128, 5-[2-(4-chlorophenyl)ethyl]-N-[1-[4-(morpholino-methyl)phenyl]-5-oxo-pyrrolidine-3-yl]-1,3,4-thiadiazole-2-carboxamide]	1 nM
O=C(NC1CC(=O)N(c2ccc(CN3CCCCC3)cc2)C1)c1nnc(CCc2ccccc2)o1 (stereo not drawn) [Compound F194, N-[5-oxo-1-[4-(1-piperidylmethyl)phenyl]pyrrolidin-3-yl]-5-(2-phenylethyl)-1,3,4-oxadiazole-2-carboxamide]	649 nM
CN(Cc1ccc(N2C[C@@H](C(=O)Nc3nnc(CCc4ccc(Cl)cc4)s3)CC2=O)cc1)C1CCOCC1 [Compound F90, (3S)-N-[5-[2-(4-chlorophenyl)ethyl]-1,3,4-thiadiazol-2-yl]-1-[4-[[methyl(tetrahydropyran-4-yl)amino]methyl]phenyl]-5-oxo-pyrrolidine-3-carboxamide]	1 nM
CC1CCN(Cc2ccc(N3C[C@H](NC(=O)c4nnc(CCc5ccc(Cl)cc5)s4)CC3=O)cc2)CC1 [Compound F138, 5-[2-(4-chlorophenyl)ethyl]-N-[(3R)-1-[4-[(4-methyl-1-piperidyl)methyl]phenyl]-5-oxo-pyrrolidin-3-yl]-1,3,4-thiadiazole-2-carboxamide]	5 nM
O=C1CC(CNc2nnc(CCc3ccc(Cl)cc3)s2)CN1c1ccc(CN2CCOCC2)cc1 (stereo not drawn) [Compound F153, 4-({5-[2-(4-Chloro-phenyl)-ethyl]-[1,3,4]thiadiazol-2-ylamino}-methyl)-1-(4-morpholin-4-ylmethyl-phenyl)-pyrrolidin-2-one]	2 nM
O=C(NC1CC(=O)N(c2ccc(CN3CCCCC3)cc2)C1)c1nnc(CCc2ccco2)s1 (stereo not drawn) [Compound F195, 5-[2-(2-furyl)ethyl]-N-[5-oxo-1-[4-(1-piperidylmethyl)phenyl]pyrrolidin-3-yl]-1,3,4-thiadiazole-2-carboxamide]	766 nM
